Assay results: patent publication US10179791B2, “Spiro-cyclic amine derivatives as S1P modulators” (AbbVie B.V., priority 2010, dated 2019)
Where a name gives a salt, the structure may show the parent alone.

Columns and labels:
Format in all cases: cell-based
human S1P5 receptor = human S1P5 receptor (Homo sapiens (Human), UniProt Q9H228); assay: In vitro functional activity (agonism) on human S1P5 receptors, CHO-human-S1P5-Aequorin assay; conditions: aequorin luminescence, CHO cells, 3 independent experiments
Excerpt: In Vitro Functional Activity (Agonism) on Human S1P5 Receptors
(§1) The CHO-human-S1P5-Aeqorin assay was bought from Euroscreen, Brussels (Euroscreen, Technical dossier, Human Lysophospholid S1P5 (Edg8) receptor, DNA clone and CHO AequoScreen™ recombinant cell-line, catalog no: ES-593-A, September 2006). Human-S1P5-Aequorin cells express mitochondrial targeted apo-Aequorin. Cells have to be loaded with coelanterazine, in order to reconstitute active Aequorin. After binding of agonists to the human S1P5 receptor the intracellular calcium concentration increases and binding of calcium to the apo-Aequorin/coelenterazine complex leads to an oxidation reaction of coelenterazine, which results in the production of apo-Aequorin, coelenteramide, CO2 and light ([…]max 469 nm). This luminescent response is dependent on the agonist concentration. Luminescence is measured using the MicroBeta Jet (Perkin Elmer). Agonistic effects of compounds are expressed as pEC50. Compounds were tested at a 10 points half log concentration range, and 3 independent experiments were performed in single point's measurements.

human S1P3 receptor = human S1P3 receptor (Homo sapiens (Human), UniProt Q99500); assay: In vitro functional activity (agonism) on human S1P3 receptors, CHO-human-S1P3-Aequorin assay; conditions: aequorin luminescence, CHO K1 cells, 3 independent experiments, read-out: S1P3 pEC50 (converted)
Excerpt: In Vitro Functional Activity (Agonism) on Human S1P3 Receptors
The CHO-human-S1P3-Aeqorin assay (CHO/Gα16/AEQ/h-S1P3) was established at Solvay Pharmaceuticals. The plasmid DNA coding for the S1P3 receptor (accession number in GenBank NM_005226 was purchased from UMR cDNA resource Centre (Rolla, Mo.). The pcDNA3.1/hS1P3 construct carrying the mitochondrially targeted apo-Aeqorin and Gal6 protein was transfected in CHO K1 cell-line.
as §1, with “Human-S1P3-Aequorin” for “The CHO-human-S1P5-Aeqorin assay was bought from Euroscreen, Brussels (Euroscreen, Technical dossier, Human Lysophospholid S1P5 (Edg8) receptor, DNA clone and CHO AequoScreen™ recombinant cell-line, catalog no: ES-593-A, September 2006). Human-S1P5-Aequorin”, “S1P3” for “S1P5”

human S1P1 [1] = target: T1, human S1P1 (Homo sapiens (Human), UniProt P21453); assay: In vitro functional activity (agonism) on human S1P1 receptors (method B), CHO-K1-human S1P1-cAMP assay
Experimental: In Vitro Functional Activity (Agonism) on Human S1P1 Receptors (Method B)
Recombinant CHO-K1 cells expressing human S1P1, grown to mid-log Phase in culture media without antibiotics, detached, centrifuged and re-suspended. For agonist testing cells are mixed with compound and Forskolin and incubated at room temperature. Cells are lyses and cAMP concentration are estimated, according to the manufacturer specification, With the HTRF kit from CIS-BIO International (cat no 62AM2PEB).
Compounds were tested at a 10 points half log concentration range duplicated in 1 experiment.

human S1P1 [2] = target: T1, human S1P1; assay: In vitro functional activity (agonism) on human S1P1 receptors (method A), CHO-K1-human-S1P1-Aequorin assay
Excerpt: In Vitro Functional Activity (Agonism) on Human S1P1 Receptors (Method A)
as §1, with “Human-S1P1-Aequorin” for “The CHO-human-S1P5-Aeqorin assay was bought from Euroscreen, Brussels (Euroscreen, Technical dossier, Human Lysophospholid S1P5 (Edg8) receptor, DNA clone and CHO AequoScreen™ recombinant cell-line, catalog no: ES-593-A, September 2006). Human-S1P5-Aequorin”, “S1P1” for “S1P5”, “2” for “3”

[3] = agonism, determined using method B (cAMP HTRF with Forskolin, CHO-K1 cells), read-out: S1P1^B pEC50 (converted)
[4] = agonism, determined using method A (aequorin luminescence, CHO-K1 cells), 2 independent experiments, read-out: S1P1^A pEC50 (converted)

Chain of human S1P5 receptor (Q9H228 whole entry): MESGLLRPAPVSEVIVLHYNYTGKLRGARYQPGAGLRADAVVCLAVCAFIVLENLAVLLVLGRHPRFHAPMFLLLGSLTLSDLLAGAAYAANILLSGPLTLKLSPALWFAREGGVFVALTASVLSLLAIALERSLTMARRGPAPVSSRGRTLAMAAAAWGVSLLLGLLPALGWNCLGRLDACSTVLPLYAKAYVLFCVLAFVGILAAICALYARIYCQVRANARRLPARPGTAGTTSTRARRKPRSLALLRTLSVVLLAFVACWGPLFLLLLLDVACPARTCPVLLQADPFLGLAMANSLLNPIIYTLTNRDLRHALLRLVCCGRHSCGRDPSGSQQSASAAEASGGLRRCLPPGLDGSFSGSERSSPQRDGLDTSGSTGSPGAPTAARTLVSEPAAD
Chain of human S1P3 receptor (Q99500 whole entry): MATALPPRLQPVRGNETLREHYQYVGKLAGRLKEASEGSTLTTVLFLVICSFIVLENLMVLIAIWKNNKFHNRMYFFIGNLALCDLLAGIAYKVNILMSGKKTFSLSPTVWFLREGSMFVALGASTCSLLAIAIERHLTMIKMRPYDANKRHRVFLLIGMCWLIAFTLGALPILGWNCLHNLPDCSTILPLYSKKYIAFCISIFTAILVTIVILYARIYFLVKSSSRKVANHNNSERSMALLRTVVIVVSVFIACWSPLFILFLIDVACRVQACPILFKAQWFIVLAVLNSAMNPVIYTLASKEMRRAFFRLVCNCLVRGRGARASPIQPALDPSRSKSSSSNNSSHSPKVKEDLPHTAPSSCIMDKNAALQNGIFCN
T1 sequence (P21453 whole entry): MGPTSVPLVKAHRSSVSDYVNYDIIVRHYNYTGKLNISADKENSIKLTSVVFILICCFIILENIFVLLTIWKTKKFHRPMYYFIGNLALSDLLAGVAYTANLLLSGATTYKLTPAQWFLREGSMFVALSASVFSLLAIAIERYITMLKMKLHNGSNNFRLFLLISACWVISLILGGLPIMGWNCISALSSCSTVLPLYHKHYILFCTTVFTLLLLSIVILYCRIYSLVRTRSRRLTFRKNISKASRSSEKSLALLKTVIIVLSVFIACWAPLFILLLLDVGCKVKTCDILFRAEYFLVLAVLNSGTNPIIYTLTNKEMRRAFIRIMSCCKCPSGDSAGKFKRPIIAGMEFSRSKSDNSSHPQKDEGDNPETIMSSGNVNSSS

Question: Cc1c(OCc2c(Cl)cccc2Cl)ccc2c1OCC21CCN(CCC(=O)O)CC1 [Compound 129, 3-{6-[(2,6-Dichlorophenyl)methoxy]-7-methyl-2H-spiro[1-benzofuran-3,4′-piperidine]-1′-yl}propanoic acid hydrochloride] was tested. Which “S1P5 pEC50” value (human S1P5 receptor) did it give?
Answer: 7.5

Question: What about the EC50 (human S1P3 receptor) of the same molecule?
Answer: > 10 µM

Question: What about the EC50 (human S1P1 [1]; [3]) of the same molecule?
Answer: > 3.16 µM

Question: O=C(O)CCN1CCC2(CC1)COc1cc(C3CC3c3c(Cl)cccc3Cl)ccc12 (stereo not shown) [Compound 178, 3-{6-[2-(2,6-Dichlorophenyl)cyclopropyl]-2H-spiro[1-benzo-furan-3,4′-piperidine]-1′-yl}propanoic acid hydrochloride] was tested. Which “S1P5 pEC50” value (human S1P5 receptor) did it give?
Answer: 7.1

Question: And the EC50 (human S1P3 receptor)?
Answer: 3.16 µM

Question: What about the EC50 (human S1P1 [1]; [3]) of the same molecule?
Answer: > 3.16 µM

Question: With O=C(O)CCN1CCC2(CC1)COc1cc(/C=C/c3ccccc3F)ccc12 [Compound 171, 3-{6-[(E)-2-(2-Fluorophenyl)ethenyl]-2H-spiro[1-benzofuran-3,4′-piperidine]-1′-yl}propanoic acid hydrochloride] as the molecule, how does the “S1P5 pEC50” value (human S1P5 receptor) read?
Answer: 6.5

Question: And the EC50 (human S1P3 receptor)?
Answer: > 10 µM

Question: And the EC50 (human S1P1 [1]; [3])?
Answer: > 3.16 µM

Question: For CC(CN1CCC2(CC1)COc1cc(OCc3c(Cl)cccc3Cl)ccc12)C(=O)O (stereo not shown) [Compound 100, 3-{6-[(2,6-Dichlorophenyl)methoxy]-2H-spiro[1-benzofuran-3,4′-piperidine]-1′-yl}-2-methylpropanoic acid hydrochloride], which “S1P5 pEC50” value (human S1P5 receptor) is on record?
Answer: 7

Question: And the EC50 (human S1P3 receptor)?
Answer: > 10 µM

Question: What about the EC50 (human S1P1 [1]; [3]) of the same molecule?
Answer: > 3.16 µM

Question: How did the “S1P5 pEC50” value (human S1P5 receptor) turn out when O=C(O)CCN1CCC2(CC1)COc1cc(Oc3c(Cl)cccc3Cl)ccc12 [Compound 248, 3-[6-(2,6-Dichlorophenoxy)-2H-spiro[1-benzofuran-3,4′-piperidine]-1′-yl]propanoic acid hydrochloride] was run?
Answer: 6.5

Question: What about the EC50 (human S1P3 receptor) of the same molecule?
Answer: > 10 µM

Question: What about the EC50 (human S1P1 [1]; [3]) of the same molecule?
Answer: > 3.16 µM

Question: For CCc1ccc(Cl)c(COc2ccc3c(c2)OCC32CCN(CCC(=O)O)CC2)c1 [Compound 51, 3-{6-[(2-Chloro-5-ethylphenyl)methoxy]-2H-spiro[1-benzofuran-3,4′-piperidine]-1′-yl}propanoic acid hydrochloride], which “S1P5 pEC50” value (human S1P5 receptor) is on record?
Answer: 6.6

Question: What about the EC50 (human S1P3 receptor) of the same molecule?
Answer: > 10 µM

Question: And the EC50 (human S1P1 [1]; [3])?
Answer: > 3.16 µM

Question: With O=C(O)CCN1CCC2(CC1)COc1cc(OC3CCc4cc(Cl)cc(Cl)c43)ccc12 (stereo not shown) [Compound 79, 3-{6-[(5,7-Dichloro-2,3-dihydro-1H-inden-1-yl)oxy]-2H-spiro[1-benzofuran-3,4′-piperidine]-1′-yl}propanoic acid] as the molecule, how does the “S1P5 pEC50” value (human S1P5 receptor) read?
Answer: 7.2

Question: What about the EC50 (human S1P3 receptor) of the same molecule?
Answer: > 10 µM

Question: What about the EC50 (human S1P1 [1]; [3]) of the same molecule?
Answer: 2 µM

Question: Which EC50 (human S1P1 [1]) does the source give for CC(C)c1cccc(Cl)c1COc1ccc2c(c1)OCC21CCN(CCC(=O)O)CC1 [Compound 74, 3-(6-{[2-Chloro-6-(propan-2-yl)phenyl]methoxy}-2H-spiro[1-benzofuran-3,4′-piperidine]-1′-yl)propanoic acid hydrochloride] here?
Answer: > 3.16 µM

Question: How did the “S1P5 pEC50” value (human S1P5 receptor) turn out when O=C(O)CCN1CCC2(CC1)COc1cc(OCc3c(F)cccc3Cl)ccc12 [Compound 38, 3-{6-[(2-Chloro-6-fluorphenyl)methoxy]-2H-spiro[1-benzofuran-3,4′-piperidine]-1′-yl}propanoic acid hydrochloride] was run?
Answer: 6.7

Question: And the EC50 (human S1P3 receptor)?
Answer: > 10 µM

Question: What about the EC50 (human S1P1 [1]) of the same molecule?
Answer: > 3.16 µM

Question: With Cc1cc(Cl)c(COc2ccc3c(c2)OCC32CCN(CCC(=O)O)CC2)c(Cl)c1 [Compound 59, 3-{6-[(2,6-Dichloro-4-methylphenyl)methoxy]-2H-spiro[1-benzofuran-3,4′-piperidine]-1′-yl)propanoic acid hydrochloride] as the molecule, how does the “S1P5 pEC50” value (human S1P5 receptor) read?
Answer: 7.8

Question: What about the EC50 (human S1P3 receptor) of the same molecule?
Answer: > 10 µM

Question: What about the EC50 (human S1P1 [1]; [3]) of the same molecule?
Answer: > 3.16 µM

Question: Which “S1P5 pEC50” value (human S1P5 receptor) does the source give for O=C(O)CCCN1CCC2(CC1)COc1cc(OCc3c(Cl)cccc3Cl)ccc12 [Compound 128, 4-{6-[(2,6-Dichlorophenyl)methoxy]-2H-spiro[1-benzofuran-3,4′-piperidine]-1′-yl}butanoic acid hydrochloride] here?
Answer: 7.6

Question: And the EC50 (human S1P3 receptor)?
Answer: > 10 µM

Question: And the EC50 (human S1P1 [1]; [3])?
Answer: > 3.16 µM

Question: With CCc1ccc(Cl)c(COc2ccc3c(c2)OCC32CCN(CCC(=O)O)CC2)c1Cl [Compound 68, 3-{6-[(2,6-Dichloro-3-ethylphenyl)methoxy]-2H-spiro[1-benzofuran-3,4′-piperidine]-1′-yl}propanoic acid hydrochloride] as the molecule, how does the “S1P5 pEC50” value (human S1P5 receptor) read?
Answer: 7.5

Question: And the EC50 (human S1P3 receptor)?
Answer: > 10 µM

Question: What about the EC50 (human S1P1 [1]; [3]) of the same molecule?
Answer: > 3.16 µM

Question: Which “S1P5 pEC50” value (human S1P5 receptor) does the source give for O=C(O)CCN1CCC2(CC1)COc1cc(OCc3c(Cl)cccc3Cl)ccc12 [Compound 29, 3-{6-[(2,6-Dichlorophenyl)methoxy]-2H-spiro[1-benzofuran-3,4′-piperidine]-1′-yl}propanoic acid hydrochloride] here?
Answer: 7

Question: And the EC50 (human S1P3 receptor)?
Answer: > 31.6 µM

Question: What about the EC50 (human S1P1 [2]) of the same molecule?
Answer: > 10 µM

Question: What does the source list for O=C(O)CCN1CCC2(CC1)COc1cc(/C=C/c3c(Cl)cccc3Cl)ccc12 [Compound 160, 3-{6-[(E)-2-(2,6-Dichlorophenyl)ethenyl]-2H-spiro[1-benzofuran-3,4′-piperidine]-1′-yl}propanoic acid hydrochloride]?
Answer: S1P5 pEC50 (human S1P5 receptor): 7.7; EC50 (human S1P3 receptor): > 10 µM; EC50 (human S1P1 [1]; [3]): > 3.16 µM

Question: Which “S1P5 pEC50” value (human S1P5 receptor) does the source give for CCc1ccc(Cl)c(C2CC2c2ccc3c(c2)OCC32CCN(CCC(=O)O)CC2)c1 (stereo not shown) [Compound 182, 3-{6-[2-(2-Chloro-5-ethylphenyl)cyclopropyl]-2H-spiro[1-benzofuran-3,4′-piperidine]-1′-yl}propanoic acid hydrochloride] here?
Answer: 7.4

Question: And the EC50 (human S1P3 receptor)?
Answer: > 10 µM

Question: What about the EC50 (human S1P1 [1]; [3]) of the same molecule?
Answer: > 3.16 µM

Question: Which “S1P5 pEC50” value (human S1P5 receptor) does the source give for O=C(O)CCCN1CCC2(CC1)COc1cc(OCc3c(Cl)cccc3C3CC3)ccc12 [Compound 121, 4-{6-[(2-Chloro-6-cyclopropylphenyl)methoxy]-2H-spiro[1-benzofuran-3,4′-piperidine]-1′-yl}butanoic acid hydrochloride] here?
Answer: 7.1

Question: What about the EC50 (human S1P3 receptor) of the same molecule?
Answer: > 10 µM

Question: And the EC50 (human S1P1 [2]; [4])?
Answer: 5.01 µM

Question: How did the “S1P5 pEC50” value (human S1P5 receptor) turn out when CCc1cccc(Cl)c1COc1ccc2c(c1)OCC21CCN(CC(=O)O)CC1 [Compound 111, 2-{6-[(2-Chloro-6-ethylphenyl)methoxy]-2H-spiro[1-benzofuran-3,4′-piperidine]-1′-yl}acetic acid hydrochloride] was run?
Answer: 7.6

Question: And the EC50 (human S1P3 receptor)?
Answer: 2 µM

Question: And the EC50 (human S1P1 [2]; [4])?
Answer: > 10 µM

Question: Which results are given for CCCCCCCOc1ccc2c(c1F)OCC21CCN(CCC(=O)O)CC1 [Compound 276, 3-[7-fluoro-6-(heptyloxy)-2H-spiro[1-benzofuran-3,4′-piperidine]-1′-yl]propanoic acid]?
Answer: S1P5 pEC50 (human S1P5 receptor): 7.1; EC50 (human S1P3 receptor): > 10 µM; EC50 (human S1P1 [2]; [4]): > 31.6 µM

Question: Which “S1P5 pEC50” value (human S1P5 receptor) does the source give for O=C(O)CCN1CCC2(CC1)COc1cc(OCc3c(F)cccc3C3CC3)ccc12 [Compound 253, 3-{6-[(2-cyclopropyl-6-fluorophenyl)methoxy]-2H-spiro[1-benzofuran-3,4′-piperidine]-1′-yl}propanoic acid] here?
Answer: 7.7

Question: And the EC50 (human S1P3 receptor)?
Answer: > 10 µM

Question: And the EC50 (human S1P1 [2]; [4])?
Answer: 2.51 µM
